Key:
FcγRIIIa V176 = test: Surface plasmon resonance (Biacore) binding of mAb3 from treated cultures to FcγRIIIa
Method: Binding of samples after 5-ThioFuc treatment was investigated by surface plasmon resonance technology using a Biacore T200 system (GE Healthcare, Uppsala, Sweden). The analysis temperature was set to 25° C. and sample compartment temperature to 15° C. […] The anti-His antibody was further used to capture His-tagged FcγRIIIa V176 ([…]) from AcroBiosystems (Newark, Del., USA).
Binding was recorded continuously, while unspecific binding and injection artefacts were subtracted automatically. Single-cycle kinetics were used with a dissociation time of 600 s at a flow rate of 30 μL/min. Data collection rate was performed at 10 Hz. Following each experiment, both flow cells were regenerated for 30 s with 10 mM glycine-HCl pH 1.5 according to kit instructions. Data of three technical and two biological replicates were fitted with a 1:1 binding model. The global dissociation constant KD was determined from the ratio of the kinetic rate constants for dissociation (kd) and association (ka) values. Data are presented in Table 1 as fold change compared to the control.

[1] = tested on: CHO cell line producing mAb2; test: Glycosylation profile (UPLC-MS of released glycans) of mAb2 from fed-batch; assay type: cell-based, Chinese hamster; conditions: mAb2, 400 μM additive, day 12
Method: Glycosylation patterns were analyzed by ultra-performance liquid chromatography coupled to a mass spectrometer (UPLC-MS). The purified antibody was denaturated and the glycans were released from the antibody by digestion with peptide N-glycosidase F (PNGase F) followed by labeling the glycans with the GlycoWorks™ RapiFluor-MS™ N-Glycan Kit according to the manufacturer protocol. For the analysis, an UPLC glycan column (2.1×150 mm) that separated the glycans according to their […] was used. The chromatography was performed at 45° C. using 50 mM ammonium formate (A), pH 4.4 solution and an acetonitrile (B) gradient. In detail, at the beginning the ratio of A:B was 20:80 (0 min) and changed to 27:73 at 3 min and 37:63 at 35 min at a flow rate of 0.5 ml/min. From 36.5 min to 39.5 min only A was used as mobile phase and the flow rate was reduced to 0.2 ml/min. Subsequently, the ratio was changed to 20% A:80% B and the flowrate was increased to 0.5 ml/min at 43.1 min until the end of the process at 55 min. The detection was performed by a fluorescence detector with an excitation wavelength of 265 nm and an emission wavelength of 425 nm. The identification of the glycan structures was performed by MS using positive electro spray ionization (ESI), which was calibrated every 30 s with a standard.
Four different clones of Chinese hamster ovary (CHO) cells expressing three different monoclonal antibodies (mAb) and a fusion protein were tested. Cells were cultivated in spin tubes between 14 and 20 days at 37° C., 5% CO2, and 80% humidity. As starting cell density, 3×10^5 cells/mL in 30 mL Cellvento®4CHO media (pH 7.0±0.1) was used for clone 1 and 2 producing mAb1 and mAb2, respectively (Cellvento® Platform). Cells were cultivated at an agitation of 320 rpm and were fed on day 3, 5, 10, 12 and 14 with 3% volume of Cellvento® 4Feed (v/v) and on day 7 with 6% (v/v) of the feed. Clone 3 and 4 producing mAb3 and a fusion protein were inoculated at the same cell density in 30 mL Ex-Cell® Advanced Media (pH 7.2±0.1) while agitation was set to 230 rpm (Ex-Cell® Platform). Clones 3 and 4 were fed with […] Advanced Feed (v/v) on day 3, 5, 7, 10, 12, 14 and 17. […] The pH of all Cellvento® feeds was adjusted to 7.0±0.1 and Ex-Cell® Feeds were adjusted to 8.5±0.1. The glucose level was maintained above 4 g/L by adding a specific amount of a 400 g/L glucose stock solution on demand to up to 6 g/L during the week and up to 13 g/L over the weekend. Glucose and titer were detected in the supernatant with the bioprocess analyzer CEDEX Bio HT (Roche, Mannheim, Germany).
To investigate the glycosylation profile during the fed-batch experiment samples were centrifugated and antibodies and Fc-fusion proteins were purified from the cell culture supernatant using protein A PhyTips® (PhyNexus Inc, San Jose, Calif.). Glycosylation patterns were analyzed as described by ultra-performance liquid chromatography coupled to a mass spectrometer (UPLC-MS) using the GlycoWorks™ RapiFluor-MS™ N-Glycan Kit.
Glycosylation profile on day 12 was visualized since harvest of recombinant produced proteins on day 12 is common. Quantification of the glycans was obtained using the relative peak area of the fluorescence signal. Almost all peaks were assigned to glycan structures according to their mass. Unknown glycan structures and signals without mass detection were summarized as unknown species (not shown). […]

[2] = tested on: CHO cell line producing mAb3; test: Fed-batch cell performance (viable cell density), clone 3 producing mAb3; assay type: cell-based, Chinese hamster; conditions: mAb3, feed with 400 μM additive
Method: Four different clones of Chinese hamster ovary (CHO) cells expressing three different monoclonal antibodies (mAb) and a fusion protein were tested. Cells were cultivated in spin tubes between 14 and 20 days at 37° C., 5% CO2, and 80% humidity. As starting cell density, 3×10^5 cells/mL in 30 mL Cellvento®4CHO media (pH 7.0±0.1) was used for clone 1 and 2 producing mAb1 and mAb2, respectively (Cellvento® Platform). Cells were cultivated at an agitation rate of 320 rpm and were fed on day 3, 5, 10, 12 and 14 with 3% volume of Cellvento® 4Feed (v/v) and on day 7 with 6% (v/v) of the feed. Clone 3 and 4 producing mAb3 and a fusion protein were inoculated at the same cell density in 30 mL Ex-Cell® Advanced Media (pH 7.2±0.1) while agitation was set to 230 rpm. Clones 3 and 4 were fed with 5% Ex-Cell® Advanced Feed (v/v) on day 3, 5, 7, 10, 12, 14 and 17. […]
The glucose level was maintained above 4 g/L by adding a specific amount of a 400 g/L glucose stock solution on demand to up to 6 g/L during the week and up to 13 g/L over the weekend. Glucose and titer were detected in the supernatant with the bioprocess analyzer CEDEX Bio HT (Roche, Mannheim, Germany) based on spectrophotometric and turbidometric methods. The viable cell density (VCD) and viability were evaluated with a Vi-CELL™ XR 2.04 cell counter (Beckman Coulter, Fullerton, Calif., USA). […]

C[C@@H]1SC(O)[C@@H](O)[C@H](O)[C@@H]1O (stereo partly drawn)
Kd (FcγRIIIa V176; mAb3 from culture fed with 50 μM additive, day 5): 85 nM | Kd (FcγRIIIa V176; mAb3 from culture fed with 50 μM additive, day 12): 63 nM | Kd (FcγRIIIa V176; mAb3 from culture fed with 50 μM additive, day 14): 61 nM | Kd (FcγRIIIa V176; mAb3 from culture fed with 200 μM additive, day 5): 52 nM | Kd (FcγRIIIa V176; mAb3 from culture fed with 200 μM additive, day 12): 40 nM | Kd (FcγRIIIa V176; mAb3 from culture fed with 200 μM additive, day 14): 28 nM | Kd (FcγRIIIa V176; mAb3 from culture fed with 400 μM additive, day 5): 35 nM | Kd (FcγRIIIa V176; mAb3 from culture fed with 400 μM additive, day 12): 32 nM | Kd (FcγRIIIa V176; mAb3 from culture fed with 800 μM additive, day 5): 40 nM | afucosylation [1]: 60% | core-fucosylation [1]: 8% | reduced VCD (area under the curve until day 17, compared to the control) [2]: about 13%

From US20230022796A1 (Merck Patent GmbH, priority 2019, published 2023)
